The record followed here is patent publication US20150283227A1, “SYNTHETIC ENV PROTEINS” (priority 2012, published 2015).

For one data set, the system named is BnAb CH01. Nature of the data set: SPR binding of V1V2 peptides/glycopeptides to captured mAb CH01. More on the design: species or system human. (In SPR one partner is held on a chip, and binding of the other changes the refractive index at the surface.)
For the next data set, the system named is BnAb PG9. Type of data set: binding, human.
Data set [1] can be described thus: Circular dichroism analysis of V1V2 peptides. Type of data set: physicochemical. To be noted: dimerized in 20% DMSO-phosphate buffer about 20 h. Here is the method: Circular dichroism (CD) spectra of V1/V2 peptides were measured on an Aviv model 202 spectropolarimeter using a 1 mm path length quartz cuvette. The 20% DMSO-treated peptides were dialyzed against 20 mM phosphate buffer, pH 7.0 to remove DMSO using a dialysis cassette of MW cut-off 3500 Da. The CD spectra of peptides (at 100 200 μg/ml concentration) in phosphate buffer (pH 7.4) were recorded at 25° C. Three scans of the CD spectra of each peptide were averaged and the CD signal from phosphate buffer was subtracted out.

The next data set has as its system V2 mAb CH58. Nature of the data set: SPR binding of V1V2 peptides/glycopeptides to captured V2 mAb CH58. More on the design: species or system human.
The next data set relates to CH01 UCA. Nature of the data set: SPR binding to unmutated ancestor of CH01. Also on record: species or system human. Here is the method: (§1) Only the V1/V2 mAb CH58 bound to the glycan-deficient (aglycone) peptide (FIG. 9A). V1/V2 bNAbs ([…], CH01) bound weakly to V1/V2 GlcNAc2 peptide (FIG. 9B). In contrast, both bNAbs PG9 and CH01 bound avidly to the glycopeptides, V1/V2 Man3GlcNAc2 and V1/V2 Man5GlcNAc2 (FIGS. 9C and 9D). CH58 bound weakly to both glycopeptides. Each of the mAbs was captured on a human Fc specific IgG directly immobilized on a BIAcore CM5 sensor chip. Each of the V1/V2 peptides (3 min at 50 uL/min) was injected over the mAb captured surface and SPR binding was monitored on a BIAcore 3000 instrument. Non-specific binding of peptides was subtracted following measurement of signal on a surface with a control ant-RSV mab Synagis.
(§2) The binding Kd (disassociation constant) of the UAs ranges from about 0.15 to 0.2 μM.
(§3) V1V2 glycopeptide binding Kd and rate constant measurements were carried out on BIAcore 3000 instruments as described earlier (Alam et al, Immunol. 178(7):4424-4435 (2007), Alam et al, J. Virol. 82(1):115-125 (2008)). Anti-human IgG Fc antibody (Sigma Chemicals) was immobilized on either a CM3 or CM5 (CM3 for kinetics and Kd determination) sensor chip (to minimize non-specific binding of peptides to chip matrix) to about 5000 Resonance Unit (RU) and each antibody was captured to about 100-200 RU on individual flow cells, in addition to one flow cell with the control Synagis mAb on the same sensor chip. Non-specific binding of V1V2 glycopeptide was double-referenced by substracting the control surface and blank buffer flow for each mAb-V1V2 glycopeptide binding interaction. […] SPR curve fitting analysis was performed using global fit of multiple titrations to the 1:1 Langmuir model. All data analysis was performed using the BIAevaluation 4.1 analysis software (GE Healthcare).

The subject of the next data set is PG9 UCA. As to the kind of experiment: SPR binding to unmutated ancestor of PG9. Also on record: species or system human. Here is the method: as §1, §2, §3
Another data set has as its target CH58 UCA. Nature of the data set: SPR binding to unmutated ancestor of CH58. More on the design: species or system human. To be noted: Example 6; CH58 UCA; DMSO-oxidized dimer, 1-10 μg/mL. Here is the method:
as §1, §3

Data set [2] concerns the target Man5GlcNAc2 V1V2 glycopeptide, DMSO-oxidized disulfide-linked dimer (HIV-1 strain AE.CM244 (A244)). Nature of the data set: SPR kinetics, mAb captured on anti-IgG, DMSO-oxidized dimer injected; 1:1 Langmuir.
The target in data set [3] is Man3GlcNAc2 V1V2 glycopeptide, DMSO-oxidized disulfide-linked dimer (HIV-1 strain AE.CM244 (A244)). Described as above.
Setting [4] is: glycans in the absence of the V2 peptide backbone.
Where [5] appears, read: Example 5, peptides 200 μg/mL, glycans 25 μg/mL over captured PG9.
The mark [6] stands for this setting: Example 6, iodine-oxidized glycopeptide, 50 ug/mL.
[7] abbreviates: Example 6, spontaneously (air) oxidized, phosphate buffer, 50 ug/mL.

Entries after “also recorded” stand apart in the source; their conditions may differ. Where two headings read alike, the source gives them in different places. Marks after values point to notes of the source that are not given here.

For orientation: Kd means the free concentration of one partner at which half of the binding sites on the other are occupied at equilibrium, for simple one-to-one binding. Broadly, the koff is the first-order rate constant of dissociation. What is called kon is a measure of how fast the partners come together.

Procedure for BnAb PG9: V1V2 glycopeptide binding Kd and rate constant measurements were carried out on a BIAcore 3000 instrument using an anti-human Ig Fc capture assay as described earlier (Alam, S. M.; McAdams, M.; Boren, D.; Rak, M.; Scearce, R. M.; Gao, F.; Camacho, Z. T.; Gewirth, D.; Kelsoe, G.; Chen, P.; Haynes, B. F. J. Immunol. 2007, 178, 4424-4435.). Anti-human IgG Fc antibody (Sigma Chemicals) was immobilized on a CM5 sensor chip to about 10000 response units (RU), and each antibody was captured to about 300 RU. Anti-RSV Synagis mAb was captured on the same sensor chip as a control surface. Non-specific binding and drift in signal was double referenced by subtracting binding to the control surface and blank buffer flow for each of the peptide binding interactions. All curve-fitting analyses were performed using global fit of multiple titrations to the 1:1 Langmuir model. All data analysis was performed using the BIAevaluation 4.1 analysis software (GE Healthcare).

Take `CC(=O)NC1C(O)OC(CO)[C@@H](O[C@@H]2OC(CO)[C@@H](O[C@@H]3OC(CO[C@H]4OC(CO[C@H]5OC(CO)[C@@H](O)[C@H](O)C5O)[C@@H](O)[C@H](O[C@H]5O[C@@H](CO)[C@@H](O)C(O)C5O)C4O)[C@@H](O)[C@H](O[C@H]4O[C@@H](CO)[C@@H](O)C(O)C4O)C3O)[C@H](O)C2NC(C)=O)[C@@H]1O` (stereo partly shown) [Man5GlcNAc2 glycan alone, reference compound]: in the data set with BnAb CH01 (setting [4]), the “SPR binding to CH01” value was “not detected”. Also, the “SPR binding to PG9” value with BnAb PG9 (setting [5]) is on record as “minimal to no binding”; in the data set on BnAb PG9 (Example 5, peptides 200 μg/mL, glycans 25 μg/mL over captured PG9, listed as Man5GlcNAc2 glycan), “not detected”.

Consider Man3GlcNAc2 V1V2, for which the “β-strand (CD spectra deconvolution, K2D3)” value in [1] is listed as 33%. The “SPR binding to CH01” value in the data set on BnAb CH01 (Example 1, peptide injected over captured mAb, listed as V1/V2 Man3GlcNAc2) was “bound avidly; also recorded: bind selectively”; in the data set on BnAb CH01 (setting [6]), “not to the BnAbs CH01 or PG9”; in the data set with BnAb CH01 (setting [7]) it was “weak or no binding”. Also, the ka is 9.97 M^−1s^−1 (×10^3) with BnAb CH01 (Table 1, CH01, DMSO-oxidized dimer); 3.97 M^−1s^−1 (×10^3) with BnAb PG9 (Table 1, PG9, glycopeptide fully oxidized in 20% DMSO (dimer)); 2.06 M^−1s^−1 (×10^3) in the data set with CH01 UCA (Table 1, CH01 UCA, DMSO-oxidized dimer); 5.33 M^−1s^−1 (×10^3) in the data set on PG9 UCA (Table 1, PG9 UCA, DMSO-oxidized dimer). For the same compound, the “SPR binding to PG9” value in the data set on BnAb PG9 (Example 1, peptide injected over mAb captured on anti-human Fc, BIAcore 3000, listed as V1/V2 Man3GlcNAc2) is recorded as “bound avidly; also recorded: bind selectively”; with BnAb PG9 (setting [7]) it was “weak or no binding”. The Kd at BnAb PG9 (Example 5, PG9, read-out: Kd (order of magnitude)) was ~100 nM; at BnAb PG9 (Example 5, glycopeptide 1-40 μg/mL over captured PG9, not deliberately oxidized, global fit 1:1 Langmuir, read-out: Kd), 119 nM; on BnAb PG9 (Example 6, PG9, glycopeptide fully oxidized in 20% DMSO (dimer), listed as Man3, read-out: Kd), 37 nM; at BnAb PG9 (Example 6, PG9, glycopeptide fully oxidized in 20% DMSO (dimer), listed as Man3 GlcNAc2, read-out: Kd), 37.1 nM; on CH01 UCA (Example 6, CH01 UCA, DMSO-oxidized dimer), 1800 nM; at CH01 UCA (Example 6, CH01 UCA, DMSO-oxidized dimer, derived using faster component of dissociation phase) it was 1780 nM. Besides, the Kd on PG9 UCA (Example 6, PG9 UCA, DMSO-oxidized dimer) amounted to 1100 nM; at PG9 UCA (Example 6, PG9 UCA, DMSO-oxidized dimer, derived using faster component of dissociation phase), 1060 nM; at CH58 UCA, 600 nM. Besides, the “SPR binding to CH58” value is given as “bound weakly” in the data set with V2 mAb CH58 (Example 1, antigen injected over captured mAb); “bound” with V2 mAb CH58 (setting [6]); “show binding” in the data set with V2 mAb CH58 (setting [7]). For the same compound, the “SPR binding to CH01 UA” value in the data set on CH01 UCA (Example 1) is “binds”. Besides, in the data set with CH01 UCA (Example 6), the “SPR binding to CH01 UCA” value is listed as “bound”. Also, in the data set on PG9 UCA (Example 1), the “SPR binding to PG9 UA” value is “binds”. In the data set on PG9 UCA (Example 6), the “SPR binding to PG9 UCA” value is “bound”.

As to `CC(=O)NC1C(O)OC(CO)[C@@H](O[C@@H]2OC(CO)[C@@H](O[C@@H]3OC(CO[C@H]4OC(CO)[C@@H](O)[C@H](O)C4O)[C@@H](O)[C@H](O[C@H]4O[C@@H](CO)[C@@H](O)C(O)C4O)C3O)[C@H](O)C2NC(C)=O)[C@@H]1O` (stereo partly drawn) [Man3GlcNAc2 glycan alone, [α-D-mannopyranosyl-(1→3)]-[α-D-mannopyranosyl-(1→6)]-β-D-mannopyranosyl-(1→4)-2-deoxy-2-N-acetyl-β-D-glucopyranosyl-(1→4)-2-deoxy-2-N-acetyl-D-glucopyranoside, reference compound], in the data set on BnAb CH01 (setting [4]), the “SPR binding to CH01” value is “not detected”. For the same compound, the “SPR binding to PG9” value with BnAb PG9 (setting [5]) is “minimal to no binding”; with BnAb PG9 (Example 5, peptides 200 μg/mL, glycans 25 μg/mL over captured PG9, listed as Man3GlcNAc2 glycan), “not detected”; in the data set with BnAb PG9 (Example 5, peptides 200 μg/mL, glycans 25 μg/mL over captured PG9, listed as Man3GlcNAc2 oligosaccharide), “not detected”.

As for `CC(=O)N[C@H]1[C@H](O[C@H]2[C@H](O)[C@@H](NC(C)=O)C(O)O[C@@H]2CO)O[C@H](CO)[C@@H](O[C@@H]2O[C@H](CO[C@H]3O[C@H](CO[C@H]4O[C@H](CO)[C@@H](O)[C@H](O)[C@@H]4O)[C@@H](O)[C@H](O[C@H]4O[C@H](CO)[C@@H](O)[C@H](O)[C@@H]4O)[C@@H]3O)[C@@H](O)[C@H](O[C@H]3O[C@H](CO)[C@@H](O)[C@H](O)[C@@H]3O)[C@@H]2O)[C@@H]1O` (stereo partly shown) [Man5GlcNAc2 glycan alone, reference compound], the “SPR binding to PG9” value with BnAb PG9 (setting [5]) is listed as “not detected”.

As to CH01 (antibody), in data set [2], the Kd amounted to 45.5 nM, the koff came out at 0.000302 s⁻¹ and the on-rate constant (kon) was determined as 6640 M⁻¹ s⁻¹. In data set [3], the equilibrium dissociation constant (Kd) is 32.1 nM, the koff was determined as 0.00032 s⁻¹ and the kon stood at 9970 M⁻¹ s⁻¹.
